Patent publication US20260272871A1, “USE OF RETINOIC ACID RECEPTOR ACTIVATOR AND COMPOSITION THEREOF IN REGENERATION AND REPAIR OF MAMMALS” (INSTITUTE OF ZOOLOGY, CHINESE ACADEMY OF SCIENCES, priority 2022, published 2026)
Entries after “also recorded” stand apart in the source; their conditions may differ.

Key:
[1] = test system: 4 mm diameter mouse ear hole; set-up: species or system mice; settings: in vivo
[2] = test system: 2 mm diameter mouse ear hole; assay: 2 mm ear hole trauma mouse model (ear hole closure); format: in vivo, C57BL/6 mice; settings: for healing of 2 mm ear holes by inhibitors of ferroptosis and autophagy: 10-20 mg/kg, measured 21 days after damage, vs DMSO and CHX, FIG. 3; for ear hole regeneration (healing) on interfering with potential RA targets: 10 or 20 mg/kg per reagent, 21 days after the trauma, FIG. 5B
scalded skin of mice = assay: Scald scar formation in mice; format: in vivo; settings: after 40 days of administration, after hair shaving, vs Vehicle; FIG. 7
Protocol: Experimental method: 7-week-old mice were used and (1) mice were anesthetized by intraperitoneal injection of 0.5% pentobarbital sodium (100 μl/10 g b.w.); (2) the back was shaved, and the skin was disinfected with 75% alcohol. (3) the mice were scalded with boiling water for 10-15 seconds. The scald area was a circle with a diameter of 1.5 cm. […] (5) wound repair status was detected.

SMILES: C[C@@H]1C[C@@H]([C@H](O)CC2CC(=O)NC(=O)C2)C(=O)[C@@H](C)C1 [CHX, 4-((R)-2-((1S,3S,5S)-3,5-dimethyl-2-oxocyclohexyl)-2-hydroxyethyl)piperidine-2,6-dione]
- closure of 4 mm diameter ear holes [1]: promoted the shrinkage of ear hole wounds, but could not completely close them; also recorded: complete closure of the ear holes could be achieved
- wound area of the 4 mm mouse ear hole [1]: significantly reduced
- HE staining of auricle tissue 180 days after ear hole closure ([2]; mouse, in vivo): regeneration of tissues and tissue derivatives such as hair follicles, glands, cartilage, muscles and blood vessels
- HE staining of mouse auricle tissue ([2]; mouse, in vivo): the trauma had completely healed
- HE staining of mouse auricle tissue, 15th day ([2]; mouse, in vivo): healed the tissue after damage and formed granulation tissue
- KI67 immunohistochemical staining of mouse auricle tissue ([2]; mouse, in vivo): expressed a large amount of KI67
- concentration (dose) above which the ear hole wound was completely closed ([2]; mouse, in vivo): greater than 8 mg/kg
- dose dependence of promotion of 2 mm ear hole healing ([2]; mouse, in vivo): dose-dependent
- effect of different administration manners on ear hole healing ([2]; mouse, in vivo): different manners of administration had the effect of promoting regeneration
- healing condition of 2 mm ear hole (photograph) ([2]; mouse, in vivo): had completely closed
- healing of the 2 mm ear hole ([2]; mouse, in vivo): could significantly promote the healing of the ear hole; also recorded: the healing effect of CHX was better
- closure of 2 mm diameter ear holes at different concentrations of CHX ([2]; mouse, in vivo, ip): promoted the closure

SMILES: Cc1cc(Nc2cc(Cl)nc(Oc3ccc([N+](=O)[O-])cc3)n2)n[nH]1 [Autophinib]
- healing of 2 mm ear holes by inhibitors of ferroptosis and autophagy [2]: Neither inhibitors of ferroptosis nor autophagy could promote the healing of the ear hole like CHX

SMILES: O=C1OC(COc2ccccc2[N+](=O)[O-])CC1Cc1ccccc1 (stereo not shown) [3BDO]
- healing of 2 mm ear holes by inhibitors of ferroptosis and autophagy [2]: Neither inhibitors of ferroptosis nor autophagy could promote the healing of the ear hole like CHX

SMILES: CC1=C(/C=C/C(C)=C/C=C/C(C)=C/CO)C(C)(C)CCC1 [vitamin A]
- ear hole regeneration (healing) on interfering with potential RA targets [2]: could also promote ear hole regeneration

SMILES: COc1ccc(C[C@H]2NC[C@H](O)[C@H]2OC(C)=O)cc1 [Ani, Anisomycin]
- healing of the 2 mm ear hole ([2]; mouse, in vivo): could significantly promote the healing of the ear hole

SMILES: O=S(=O)(NCCN1CCNCC1)c1ccc(NC2CCCCC2)c(NCc2ccccc2)c1 [UAMC-3203]
- healing of 2 mm ear holes by inhibitors of ferroptosis and autophagy [2]: Neither inhibitors of ferroptosis nor autophagy could promote the healing of the ear hole like CHX

SMILES: CC1=C(/C=C/C(C)=C/C=C/C(C)=C/C(=O)O)C(C)(C)CCC1 [RA, all-trans retinoic acid]
- closure of the ear hole with RA alone ([2]; RA 5 mg/kg, 20 mg/kg vs DMSO, 21 days after ear hole damage, FIG. 5A): promote the closure of the ear hole in a dose-dependent manner
- scar area after scald (scalded skin of mice): significantly reduce the scar area

SMILES: Cc1ccc(C2=CCC(C)(C)c3ccc(C#Cc4ccc(C(=O)O)cc4)cc32)cc1 [AGN193109]
- effect of RAR inhibitor on CHX-induced ear hole healing ([2]; CHX 20 mg/kg + AGN 0.75 mg/kg i.p., 21 days after damage, FIG. 4): completely inhibit the healing of the ear holes induced by CHX
- effect of RAR inhibitor on the coordinated effect of CHX+RA ([2]; CHX 20 mg/kg + RA 5 mg/kg + AGN 0.75 mg/kg i.p., 21 days after damage, FIG. 4): could still be inhibited

SMILES: CCC(CC)C(c1ccc(Nc2nc3ccccc3s2)cc1)n1cncn1 (stereo not shown) [Talarozole]
- ear hole regeneration (healing) on interfering with potential RA targets [2]: could also promote ear hole regeneration
